# Laboratory results published in PubChem BioAssay (NCI).
#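 Results reflect a 48-hour exposure of cells in 96-well plates to compound at five concentrations. Here, GI50 denotes the concentration required for 50% inhibition of growth. TGI is the concentration that stops growth completely.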
# Legend:
# Experiment in all cases: NCI anticancer screen, dose series, 48 h
# 786-0 renal = tested on: 786-0 renal
# A498 renal = tested on: A498 renal
# IGROV1 ovarian = tested on: IGROV1 ovarian
# K-562 leukemia = tested on: K-562 leukemia
# NCI-H23 lung = tested on: NCI-H23 lung
# NCI-H522 lung = tested on: NCI-H522 lung
# OVCAR-5 ovarian = tested on: OVCAR-5 ovarian
# SF-539 CNS = tested on: SF-539 CNS
# SNB-75 CNS = tested on: SNB-75 CNS
# UACC-62 melanoma = tested on: UACC-62 melanoma
Structure (SMILES),GI50 (786-0 renal),TGI (786-0 renal),GI50 (A498 renal),TGI (A498 renal),GI50 (IGROV1 ovarian),TGI (IGROV1 ovarian),GI50 (K-562 leukemia),TGI (K-562 leukemia),GI50 (NCI-H23 lung),TGI (NCI-H23 lung),GI50 (NCI-H522 lung),TGI (NCI-H522 lung),GI50 (OVCAR-5 ovarian),TGI (OVCAR-5 ovarian),GI50 (SF-539 CNS),TGI (SF-539 CNS),GI50 (SNB-75 CNS),TGI (SNB-75 CNS),GI50 (UACC-62 melanoma),TGI (UACC-62 melanoma)
C#CCN(Cc1nc2cc(C(F)(F)F)ccc2nc1-c1ccccc1)c1ccc(OC(F)(F)F)cc1,> 100 µM,> 100 µM,50.1 µM,> 100 µM,34.8 µM,> 100 µM,33.9 µM,> 100 µM,60.5 µM,> 100 µM,16.6 µM,54.6 µM,> 100 µM,> 100 µM,20 µM,41.2 µM,> 100 µM,> 100 µM,48.6 µM,> 100 µM
CC(=O)N1N=C(c2ccc(Nc3nc(Nc4ccc(Cl)cc4)nc(Nc4ccc(Cl)cc4)n3)cc2)CC1c1ccc([N+](=O)[O-])cc1 (stereo not drawn),3.8 µM,26.3 µM,1.97 µM,19.6 µM,6.51 µM,> 65.6 µM,2.65 µM,28.7 µM,11.1 µM,> 100 µM,6.39 µM,> 100 µM,19.4 µM,> 100 µM,6 µM,25.5 µM,3.71 µM,> 54.6 µM,11.9 µM,34.9 µM
CCCCCCc1cc2cc(-c3nc4ccccc4[nH]3)c(=Nc3ccccc3C)oc2cc1O,1.88 µM,3.43 µM,4.02 µM,16.8 µM,2.07 µM,5.89 µM,3.1 µM,9.29 µM,2.46 µM,5.87 µM,2.11 µM,5.11 µM,3.64 µM,29 µM,1.83 µM,3.75 µM,1.41 µM,3.49 µM,1.62 µM,3.41 µM
Cn1cc(C2=C(c3cn(CCO)c4ccccc34)C(=O)NC2=O)c2ccccc21,5.01 µM,> 25 µM,1.45 µM,7.78 µM,4.93 µM,14.9 µM,1.12 µM,> 25 µM,4.75 µM,15.2 µM,1.64 µM,10.8 µM,10.9 µM,> 25 µM,1.4 µM,8.9 µM,0.634 µM,6.5 µM,2.58 µM,7.99 µM
Fc1ccc(-c2nn3c(-c4ccc(F)c(Cl)c4)nnc3s2)cc1,35.3 µM,> 50 µM,> 50 µM,> 50 µM,33.1 µM,> 50 µM,34.3 µM,> 50 µM,> 50 µM,> 50 µM,20.8 µM,> 50 µM,> 50 µM,> 50 µM,> 50 µM,> 50 µM,11.3 µM,30.4 µM,34.8 µM,> 50 µM
COC(=O)C1=C(C)NC(C)=C(C(=O)OC)C1/C=C(\Cl)c1ccc(Cl)c(Cl)c1,17 µM,30.8 µM,11.4 µM,24.1 µM,15.5 µM,28.9 µM,10.6 µM,40.3 µM,16.8 µM,31 µM,16.6 µM,32.4 µM,16.8 µM,30.4 µM,17.1 µM,33 µM,8.25 µM,22.9 µM,6.42 µM,20.3 µM
c1ccc2c(c1)sc1c3cnccc3ccc21,,> 100 µM,,> 100 µM,,> 100 µM,,> 100 µM,,> 100 µM,,> 100 µM,,> 100 µM,,> 100 µM,,> 100 µM,,> 100 µM
Cc1oc2c(C)c3oc(=O)cc(C)c3cc2c1CNC(=O)[C@@H]1OCCOCCOCCOCCOCCOC1C(=O)O (stereo partly drawn),,45 µM,,> 100 µM,,> 100 µM,,> 100 µM,,> 100 µM,,> 100 µM,,> 100 µM,,> 100 µM,,> 100 µM,,> 100 µM
CCOC(=O)/C(=N\OC)C(O)C(F)(F)F (stereo not drawn),,> 100 µM,,> 100 µM,,> 100 µM,,> 100 µM,,> 100 µM,,> 100 µM,,> 100 µM,,> 100 µM,,> 100 µM,,> 100 µM
CC(=O)Nc1ccc(/C=C/C(=O)c2ccccc2)cc1,23.9 µM,53.4 µM,15.9 µM,36.7 µM,9.44 µM,30.6 µM,3.28 µM,> 100 µM,17.5 µM,43.2 µM,6.85 µM,23.2 µM,18.3 µM,45.3 µM,14 µM,32.9 µM,18.2 µM,42.2 µM,17.8 µM,39.2 µM
CCCCCCCC(=O)NCC(O)CNC(=O)CCCCCCC,,> 100 µM,,> 100 µM,,> 100 µM,,> 100 µM,,> 100 µM,,> 100 µM,,> 100 µM,,> 100 µM,,> 100 µM,,> 100 µM
CCOC(=O)c1c(-c2ccccc2)oc(-c2ccccc2)c1C(=O)OCC,,> 100 µM,,> 100 µM,,> 100 µM,,> 100 µM,,> 100 µM,,> 100 µM,,> 100 µM,,> 100 µM,,> 100 µM,,> 100 µM
N#Cc1cccc(OCc2nc(N)nc(N)c2-c2ccc(Cl)c(Cl)c2)c1,0.513 µM,> 100 µM,2.9 µM,> 100 µM,1.46 µM,> 100 µM,0.384 µM,> 100 µM,2.42 µM,> 100 µM,5.62 µM,> 100 µM,6.87 µM,> 100 µM,1.43 µM,65.4 µM,5.67 µM,> 100 µM,0.442 µM,> 100 µM
Clc1cc2c(cc1Cl)Oc1cc(Cl)c(Cl)cc1O2,> 0.625 µM,> 0.625 µM,> 0.625 µM,> 0.625 µM,> 0.625 µM,> 0.625 µM,> 0.625 µM,> 0.625 µM,> 0.625 µM,> 0.625 µM,> 0.625 µM,> 0.625 µM,> 0.625 µM,> 0.625 µM,> 0.625 µM,> 0.625 µM,0.304 µM,> 0.625 µM,> 0.625 µM,> 0.625 µM
CCOc1ccc(-c2cnnn2-c2nonc2-n2cccc2)cc1,0.416 µM,> 100 µM,0.203 µM,0.924 µM,0.581 µM,> 100 µM,0.0638 µM,> 100 µM,0.282 µM,,0.121 µM,0.531 µM,1.08 µM,> 100 µM,0.319 µM,3.77 µM,0.138 µM,0.527 µM,0.379 µM,> 60.3 µM
CN(C)CCN(C)CC1COC(C)(C)O1 (stereo not drawn),,> 100 µM,,> 100 µM,,> 100 µM,,> 100 µM,,> 100 µM,,> 100 µM,,> 100 µM,,> 100 µM,,> 100 µM,,> 100 µM
CCCCCc1nc2c(c3c1CCCC3)CCCC2,13.4 µM,27.8 µM,3.28 µM,19.6 µM,5.73 µM,26.2 µM,4.76 µM,27.9 µM,5.06 µM,25.6 µM,2.84 µM,17.9 µM,9.08 µM,27.4 µM,17.4 µM,36.2 µM,13.3 µM,51.7 µM,12.1 µM,29.2 µM
O=S(=O)(Cc1ccc(Cl)cc1Cl)c1ccc(Cl)cc1,1.84 µM,> 100 µM,0.317 µM,16.3 µM,0.445 µM,> 21.9 µM,0.303 µM,> 100 µM,0.878 µM,> 100 µM,0.282 µM,2.27 µM,4.28 µM,> 100 µM,0.47 µM,3.72 µM,0.732 µM,> 27.5 µM,0.502 µM,> 100 µM
Cc1cc2cc3cc(C)c(N(C)C)cc3[n+](C)c2cc1N(C)C,5.1 µM,18.8 µM,3.18 µM,25.5 µM,5.04 µM,> 100 µM,3.14 µM,> 100 µM,2.77 µM,31.2 µM,5.35 µM,36.1 µM,11.9 µM,> 100 µM,3.05 µM,12.1 µM,3.7 µM,31.4 µM,4.91 µM,23.6 µM
CCC1C(=O)OCc2c1cc1n(c2=O)Cc2cc3ccccc3nc2-1 (stereo not drawn),,27.3 µM,,49 µM,,> 100 µM,,> 100 µM,,10.6 µM,,> 44.4 µM,,> 100 µM,,5.67 µM,,25.9 µM,,> 37.6 µM
COc1cc(C(=O)N2N=C(c3ccc(S(C)(=O)=O)cc3)CC2c2ccco2)cc(OC)c1OC (stereo not drawn),8.51 µM,> 100 µM,5.15 µM,> 100 µM,5.4 µM,> 100 µM,4.81 µM,> 100 µM,15.2 µM,> 100 µM,3.95 µM,> 61.6 µM,> 80.2 µM,> 100 µM,3.12 µM,17.4 µM,2.91 µM,> 46 µM,3.82 µM,> 100 µM
Cc1cc(Cl)cc2c(N=Nc3ccccc3[N+](=O)[O-])c(O)[nH]c12,,> 100 µM,,> 100 µM,,> 100 µM,,> 100 µM,,> 100 µM,,> 100 µM,,> 100 µM,,> 100 µM,,> 100 µM,,> 100 µM
N#Cc1ncc(-c2ccc(C(F)(F)F)cc2)c(NCc2cc(C(F)(F)F)cc(C(F)(F)F)c2)n1,6.39 µM,96.3 µM,2.08 µM,7.71 µM,5.95 µM,> 100 µM,3.74 µM,> 100 µM,3.22 µM,23.8 µM,2.92 µM,9.86 µM,8.9 µM,> 100 µM,8.5 µM,> 100 µM,3.19 µM,68.8 µM,3.93 µM,> 100 µM
CCC[CH2][Sn]([CH2]CCC)([O]C(=O)c1cc(F)ccc1F)[O][Sn]([CH2]CCC)([CH2]CCC)[O]C(=O)c1cc(F)ccc1F,0.158 µM,0.405 µM,0.238 µM,0.631 µM,1.03 µM,2.33 µM,0.0372 µM,6.22 µM,0.0702 µM,0.311 µM,,0.0658 µM,1.76 µM,3.16 µM,0.386 µM,1.22 µM,0.365 µM,1.66 µM,0.206 µM,0.665 µM
O=C1CC(c2cccc(O)c2)C2(C(=O)NC(=S)NC2=O)C(c2cccc(O)c2)C1 (stereo not drawn),> 100 µM,> 100 µM,> 100 µM,> 100 µM,> 100 µM,> 100 µM,> 100 µM,> 100 µM,> 100 µM,> 100 µM,> 100 µM,> 100 µM,> 100 µM,> 100 µM,> 100 µM,> 100 µM,> 100 µM,> 100 µM,> 100 µM,> 100 µM
COc1ccc2c(c1)C(=O)N1CCOC1C2C(=O)O (stereo not drawn),,> 100 µM,,> 100 µM,,> 100 µM,,> 100 µM,,> 100 µM,,> 100 µM,,> 100 µM,,> 100 µM,,> 100 µM,,> 100 µM
CS(=O)(=O)OCC1OC(n2ccc(NC(=O)c3ccccc3)nc2=O)CC1OS(C)(=O)=O (stereo not drawn),,> 100 µM,,> 100 µM,,> 100 µM,,> 100 µM,,> 100 µM,,> 100 µM,,> 100 µM,,> 100 µM,,> 100 µM,,> 100 µM
C/C=C/C1=C(Cl)C(=O)[C@@H](Cl)[C@@]1(O)C(=O)OC,,18 µM,,14.3 µM,,14.1 µM,,14.4 µM,,10.1 µM,,2.52 µM,,24.5 µM,,5.45 µM,,32.8 µM,,4.18 µM
Cc1nc(-c2ccccc2)c(Cc2ccccc2O)c(=O)[nH]1,,> 100 µM,,> 100 µM,,> 100 µM,,> 100 µM,,> 100 µM,,> 100 µM,,> 100 µM,,> 100 µM,,97.9 µM,,> 100 µM
Cc1cc(NCCCNc2ccnc3cc(Cl)ccc23)nc(N2CCN(C)CC2)n1,14.7 µM,38.3 µM,14.4 µM,28.3 µM,8.14 µM,39.9 µM,1.86 µM,11.7 µM,5.9 µM,28.6 µM,2.43 µM,11.1 µM,11.6 µM,43.2 µM,1.84 µM,3.6 µM,13 µM,34.4 µM,2.05 µM,4.55 µM
